How the values were obtained:
Test in all cases: selective drug sensitivity score (sDSS, relative to normal bone marrow) (sDSS (score)); higher = more potent and effective on the cell line relative to normal bone marrow cells
Conditions in all cases: 72 h
CCRF-HSB2 = tested on: CCRF-HSB2
COG-LL-319h = tested on: COG-LL-319h
MN-60 = tested on: MN-60
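Note: ALL cell lines in 384-well plates, five doses spanning 10,000-fold, each plate scaled between vehicle and 100 µmol/L benzalkonium chloride controls, sDSS an adapted area-under-curve metric.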

SMILES	selective drug sensitivity score (CCRF-HSB2)	selective drug sensitivity score (COG-LL-319h)	selective drug sensitivity score (MN-60)
COCCNCc1ccc(-c2cc3nccc(Oc4ccc(NC(=S)NC(=O)Cc5ccc(F)cc5)cc4F)c3s2)nc1 [Glesatinib] (top concentration 2500 nM)	11.7	3.74	-1.96
C=CC(=O)N1CCC[C@@H](n2nc(-c3ccc(Oc4ccccc4)cc3)c3c(N)ncnc32)C1 [Ibrutinib] (top concentration 1000 nM)	7	5.2	0
CC[C@H](Nc1ncnc2[nH]cnc12)c1nc2cccc(F)c2c(=O)n1-c1ccccc1 [Idelalisib] (top concentration 10000 nM)	1.24	1.74	-2.16
O=C(Nc1ccncc1)C(=O)c1cn(Cc2ccc(Cl)cc2)c2ccccc12 [Indibulin] (top concentration 10000 nM)	11.2	17	1.84
CC(C)C[C@H](NC(=O)CNC(=O)c1cc(Cl)ccc1Cl)B(O)O [Ixazomib] (top concentration 1000 nM)	8.86	6.06	-1.84
CC(C)NC(=O)COc1cccc(-c2nc(Nc3ccc4[nH]ncc4c3)c3ccccc3n2)c1 [KD025] (top concentration 5000 nM)	-3.86	-1.06	-5.36
Nc1cccc2c1CN(C1CCC(=O)NC1=O)C2=O (stereo unspecified) [Lenalidomide] (top concentration 100000 nM)	0.22	-1.78	-2.28
Sc1ncnc2nc[nH]c12 [Mercaptopurine] (top concentration 10000 nM)	12.6	17.7	6.6
Cc1ccc(C(=O)Nc2ccc(Oc3cc4cnn(C)c4cc3-c3cn[nH]c3)c(F)c2)c(=O)n1-c1ccc(F)cc1 [Merestinib] (top concentration 1000 nM)	-0.22	-0.62	1.38
CNC(=O)c1nn(C)c2c1C(C)(C)Cc1cnc(Nc3ccc(N4CCN(C)CC4)cc3)nc1-2 [Milciclib] (top concentration 10000 nM)	13.9	7.64	2.04
N#CCNC(=O)c1ccc(-c2ccnc(Nc3ccc(N4CCOCC4)cc3)n2)cc1 [Momelotinib] (top concentration 10000 nM)	1.08	0.28	-7.22
Cc1ccc(C(=O)Nc2cccc(C(F)(F)F)c2)cc1Nc1nc(-c2cccnc2)nc2c1cnn2C [NVP-BHG712] (top concentration 10000 nM)	10.3	3.68	0.68
Cn1c(Nc2ccc(C(F)(F)F)cc2)nc2cc(Oc3ccnc(-c4ncc(C(F)(F)F)[nH]4)c3)ccc21 [NVP-RAF265] (top concentration 1000 nM)	5.98	5.08	-0.22
CC1(C)CC[C@]2(NC(=O)C(C)(F)F)CC[C@]3(C)[C@H](C(=O)C=C4[C@@]5(C)C=C(C#N)C(=O)C(C)(C)[C@@H]5CC[C@]43C)[C@@H]2C1 [Omaveloxolone] (top concentration 10000 nM)	3.78	10.5	1.08
CC(C)c1cc(C(=O)N2Cc3ccc(CN4CCN(C)CC4)cc3C2)c(O)cc1O [Onalespib] (top concentration 2500 nM)	7.32	7.92	-0.48
COC[C@H](NC(=O)c1cnc(C)s1)C(=O)N[C@@H](COC)C(=O)N[C@@H](Cc1ccccc1)C(=O)[C@@]1(C)CO1 [Oprozomib] (top concentration 2500 nM)	14.2	3.5	-4.3
COc1ccccc1S(=O)(=O)Nc1ccc2c(c1)CN(C)C(=O)N2 [PFI-1] (top concentration 30000 nM)	1	16.2	2.9
NS(=O)(=O)OC[C@@H]1C[C@@H](n2ccc3c(N[C@H]4CCc5ccccc54)ncnc32)C[C@@H]1O [Pevonedistat] (top concentration 10000 nM)	16.3	12.2	6.5
CCCCc1nc2cc(/C=C/C(=O)NO)ccc2n1CCN(CC)CC [Pracinostat] (top concentration 10000 nM)	5.88	10.1	-1.42

SMILES	selective drug sensitivity score (CCRF-HSB2)	selective drug sensitivity score (COG-LL-319h)	selective drug sensitivity score (MN-60)
COc1cccc(OCCCN)c1-c1cc(Nc2cnc(C#N)cn2)n[nH]1 [Prexasertib] (top concentration 10000 nM)	18.6	19.4	4.24
Cc1cn(-c2cc(NC(=O)c3ccc(C)c(Nc4nccc(-c5cnccn5)n4)c3)cc(C(F)(F)F)c2)cn1 [Radotinib] (top concentration 10000 nM)	8.2	13.2	0.4
Cn1nccc1Nc1nccc(-c2ccn([C@H](CO)c3ccc(Cl)c(F)c3)c(=O)c2)n1 [Ravoxertinib] (top concentration 10000 nM)	-1.2	10.2	-3.2
C/C=C1\NC(=O)[C@H]2CSSCC/C=C/[C@H](CC(=O)N[C@H](C(C)C)C(=O)N2)OC(=O)[C@H](C(C)C)NC1=O [Romidepsin] (top concentration 1000 nM)	1.46	1.16	-4.94
CNCc1ccc(-c2[nH]c3cc(F)cc4c3c2CCNC4=O)cc1 [Rucaparib] (top concentration 10000 nM)	1.22	6.32	-0.58
CC(C)(C)c1cnc(CSc2cnc(NC(=O)C3CCNCC3)s2)o1 [SNS-032] (top concentration 10000 nM)	-2.24	-2.24	-8.64
Cc1c(C(=O)Nc2ccc(N3C[C@@H](C)O[C@@H](C)C3)nc2)cccc1-c1ccc(OC(F)(F)F)cc1 [Sonidegib] (top concentration 10000 nM)	-1.42	4.98	-1.42
CNC(=O)c1cc(Oc2ccc(NC(=O)Nc3ccc(Cl)c(C(F)(F)F)c3)cc2)ccn1 [Sorafenib] (top concentration 1000 nM)	0	0	0
CN1CCN(c2nc(C3=C(c4c[nH]c5ccccc45)C(=O)NC3=O)c3ccccc3n2)CC1 [Sotrastaurin] (top concentration 10000 nM)	3.5	4.7	-2.3
Cc1cc(C(C)Nc2ccccc2)c2nc(N3CCOCC3)cc(=O)n2c1 (stereo unspecified) [TGX-221] (top concentration 10000 nM)	2.36	-1.64	-1.64
Cc1nc(-c2cn3c(n2)-c2ccc(-c4cnn(C(C)(C)C(N)=O)c4)cc2OCC3)n(C(C)C)n1 [Taselisib] (top concentration 1000 nM)	2.3	4.1	-0.4
Cn1cncc1[C@@](N)(c1ccc(Cl)cc1)c1ccc2c(c1)c(-c1cccc(Cl)c1)cc(=O)n2C [Tipifarnib] (top concentration 10000 nM)	9.4	8.2	2
CN(C)CCOc1ccc(/C(=C(/CCCl)c2ccccc2)c2ccccc2)cc1 [Toremifene] (top concentration 10000 nM)	1.48	3.48	0.78
CC(=O)Nc1cccc(-n2c(=O)n(C3CC3)c(=O)c3c(Nc4ccc(I)cc4F)n(C)c(=O)c(C)c32)c1 [Trametinib] (top concentration 250 nM)	-1.54	-0.74	-8.04
O=C(CCCCCCC(=O)Nc1ccc([C@H]2O[C@@H](CSc3nc(-c4ccccc4)c(-c4ccccc4)o3)C[C@@H](c3ccc(CO)cc3)O2)cc1)NO [Tubacin] (top concentration 10000 nM)	15.8	15.9	5.44
CN1CCc2c(c3ccccc3n2Cc2ccc(C(=O)NO)cc2)C1 [Tubastatin_A] (top concentration 10000 nM)	2.06	8.86	2.16
C[C@]1(c2nc3c(C(N)=O)cccc3[nH]2)CCCN1 [Veliparib] (top concentration 10000 nM)	-2.18	1.02	-3.38
CS(=O)(=O)c1ccc(C(=O)Nc2ccc(Cl)c(-c3ccccn3)c2)c(Cl)c1 [Vismodegib] (top concentration 10000 nM)	-1.14	5.56	-1.14
